Values quoted from earlier work in US20080254084A1, “Antimicrobial Preparations Having a Content of Octenidine Dihydrochloride Encapsulated in Liposomes” (Air Liquide Sante (International), priority 2005, published 2008).
Where a name gives a salt, the structure may show the parent alone.

What was measured:
[1] = octenidine dihydrochloride concentration
[2] = test system: a large number of microbes; details: concentrations of >0.001% octenidine dihydrochloride, within 1 min

Question: With `CCCCCCCCNc1cc[n+](CCCCCCCCCC[n+]2ccc(NCCCCCCCC)cc2)cc1` [octenidine dihydrochloride] as the molecule, how does the “concentration at which cytotoxicity is present” value [1] read?
Answer: > 0.001 % by weight

Question: What about the reduction factor [2] of the same molecule?
Answer: 5 decadic units
